Laboratory results as given in patent publication US8980944B2 (Gemmus Pharma Inc., priority 2006, dated 2015).
Where “and” joins values, the source holds several entries; their conditions need not be identical. Equal values may be shown once.

Key:
clinical = conditions: human, in vivo, po
GM-CSF = assay: Anti-CD3/CD28-stimulated human CD8 cells, GM-CSF release (multi-cytokine bead immunoassay); conditions: 1 μM Nileprost, Anti-CD3/CD28 stimulation, individual donors 1-4
IL-12 = assay: LPS-stimulated human monocyte-derived dendritic cells, IL-12 release (ELISA); conditions: LPS stimulation
TNFα [1] = assay: ConA-stimulated human peripheral blood lymphocytes, TNFα release (ELISA); conditions: human T cells, ConA stimulation
TNFα [2] = assay: Poly(I:C)-stimulated human monocyte-derived dendritic cells, TNFα release (ELISA); format: cell-based; conditions: one micromolar; for TNFα percent inhibition from untreated control: Poly IC-stimulated monocyte-derived dendritic cells, 18 hours
IFN-γ [3] = assay: ConA-stimulated human peripheral blood lymphocytes, IFN-γ release (ELISA); conditions: for Percent inhibition of IFN-γ compared to uninhibited control: human T cells, ConA stimulation
IFN-γ [4] = assay: Anti-CD3/CD28-stimulated human CD8 cells, IFN-γ release (multi-cytokine bead immunoassay)
IL-2 = assay: Anti-CD3/CD28-stimulated human CD8 cells, IL-2 release (multi-cytokine bead immunoassay)
[5] = Study A: tolerance and pharmacokinetics in volunteers after single oral dose; conditions: human, in vivo

SMILES: CCCCC(C)[C@H](O)/C=C/[C@@H]1[C@H]2C/C(=C(\C#N)CCCC(=O)O)O[C@H]2C[C@H]1O (stereo partly drawn) [Nileprost]
- Cmax (clinical; 50 ug): 0.566 ng/mL and 1.4 nM
- Cmax (clinical; 75 ug): 0.869 ng/mL and 2.2 nM
- Cmax (clinical; 112 ug): 0.803 ng/mL and 2 nM
- Cmax (clinical; 170 ug): 0.954 ng/mL and 2.4 nM
- Cmax (clinical; 255 ug): 1.71 ng/mL and 4.3 nM
- Cmax (clinical; 375 ug): 1.72 ng/mL and 4.3 nM
- Percent inhibition of GM-CSF compared to uninhibited control (GM-CSF): 65% and 61%
- inhibitory activity in human monocyte-derived dendritic cell (DC) cytokine release (IL-12): very high inhibitory activity
- inhibition at 0.001 µM (TNFα [1]; Homo sapiens, T-cell, read-out: Percent inhibition of TNF compared to uninhibited control, Nileprost 1 nM, individual donors 3-4): 24%
- inhibition at 0.0025 µM (TNFα [1]; Homo sapiens, T-cell, read-out: Percent inhibition of TNF compared to uninhibited control, Nileprost 2.5 nM, individual donors 1-2): 24%
- inhibition at 0.003 µM (TNFα [1]; Homo sapiens, T-cell, read-out: Percent inhibition of TNF compared to uninhibited control, Nileprost 3 nM, individual donors 3-4): 28%
- inhibition at 0.005 µM (TNFα [1]; Homo sapiens, T-cell, read-out: Percent inhibition of TNF compared to uninhibited control, Nileprost 5 nM, individual donors 1-2): 47%
- inhibition at 0.009 µM (TNFα [1]; Homo sapiens, T-cell, read-out: Percent inhibition of TNF compared to uninhibited control, Nileprost 9 nM, individual donors 3-4): 53%
- inhibition at 0.01 µM (TNFα [1]; Homo sapiens, T-cell, read-out: Percent inhibition of TNF compared to uninhibited control, Nileprost 10 nM, individual donors 1-2): 46%
- inhibition at 0.02 µM (TNFα [1]; Homo sapiens, T-cell, read-out: Percent inhibition of TNF compared to uninhibited control, Nileprost 20 nM, individual donors 1-2): 50%
- inhibition at 0.083 µM (TNFα [1]; Homo sapiens, T-cell, read-out: Percent inhibition of TNF compared to uninhibited control, Nileprost 83 nM, individual donors 3-4): 61%
- Percent inhibition of TNF compared to uninhibited control (TNFα [1]; Nileprost 0.04 nM, individual donors 3-4): 1% and 11%
- Percent inhibition of TNF compared to uninhibited control (TNFα [1]; Nileprost 0.11 nM, individual donors 3-4): 4% and 16%
- Percent inhibition of TNF compared to uninhibited control (TNFα [1]; Nileprost 0.5 nM, individual donors 1-2): 7% and 1%
- Percent inhibition of TNF compared to uninhibited control (TNFα [1]; Nileprost 1 nM, individual donors 3-4): 37%
- Percent inhibition of TNF compared to uninhibited control (TNFα [1]; Nileprost 1.25 nM, individual donors 1-2): 14% and 5%
- Percent inhibition of TNF compared to uninhibited control (TNFα [1]; Nileprost 2.5 nM, individual donors 1-2): 19%
- Percent inhibition of TNF compared to uninhibited control (TNFα [1]; Nileprost 3 nM, individual donors 3-4): 48%
- Percent inhibition of TNF compared to uninhibited control (TNFα [1]; Nileprost 5 nM, individual donors 1-2): 36%
- Percent inhibition of TNF compared to uninhibited control (TNFα [1]; Nileprost 9 nM, individual donors 3-4): 67%
- Percent inhibition of TNF compared to uninhibited control (TNFα [1]; Nileprost 10 nM, individual donors 1-2): 49%
- Percent inhibition of TNF compared to uninhibited control (TNFα [1]; Nileprost 83 nM, individual donors 3-4): 76%
- Percent inhibition of TNF compared to uninhibited control (TNFα [1]; Nileprost 250 nM, individual donors 3-4): 49% and 76%
- TNFα percent inhibition from untreated control (TNFα [2]; Donor 1): 89%
- TNFα percent inhibition from untreated control (TNFα [2]; Donor 2): 45%
- TNFα percent inhibition from untreated control (TNFα [2]; Donor 3): 74%
- Poly(I:C)-induced TNFα (TNFα [2]; monocyte-derived dendritic cells): significant decrease
- Percent inhibition of IFN-γ compared to uninhibited control (IFN-γ [3]; Nileprost 0.04 nM, individual donors 5-8): 16% and 7% and 9% and 27%
- Percent inhibition of IFN-γ compared to uninhibited control (IFN-γ [3]; Nileprost 0.11 nM, individual donors 5-8): 22% and 16% and 34%
- Percent inhibition of IFN-γ compared to uninhibited control (IFN-γ [3]; Nileprost 1 nM, individual donors 5-8): 43% and 32% and 24% and 51%
- Percent inhibition of IFN-γ compared to uninhibited control (IFN-γ [3]; Nileprost 1.25 nM, individual donors 1-4): 11%
- Percent inhibition of IFN-γ compared to uninhibited control (IFN-γ [3]; Nileprost 2.5 nM, individual donors 1-4): 43%
- Percent inhibition of IFN-γ compared to uninhibited control (IFN-γ [3]; Nileprost 3 nM, individual donors 5-8): 56% and 46% and 22% and 71%
- Percent inhibition of IFN-γ compared to uninhibited control (IFN-γ [3]; Nileprost 5 nM, individual donors 1-4): 48% and 56%
- Percent inhibition of IFN-γ compared to uninhibited control (IFN-γ [3]; Nileprost 9 nM, individual donors 5-8): 59% and 60% and 48% and 73%
- Percent inhibition of IFN-γ compared to uninhibited control (IFN-γ [3]; Nileprost 10 nM, individual donors 1-4): 43%
- Percent inhibition of IFN-γ compared to uninhibited control (IFN-γ [3]; Nileprost 20 nM, individual donors 1-4): 56% and 67%
- Percent inhibition of IFN-γ compared to uninhibited control (IFN-γ [3]; Nileprost 83 nM, individual donors 5-8): 57% and 60% and 65% and 85%
- Percent inhibition of IFN-γ compared to uninhibited control (IFN-γ [3]; Nileprost 250 nM, individual donors 5-8): 59% and 76% and 57% and 83%
- inhibitory activity in the T lymphocyte Th-1 cytokine release (IFN-γ [3]; dose responsively, ConA-stimulated human lymphocytes): very high inhibitory activity
- Percent inhibition of IFN-γ compared to uninhibited control (IFN-γ [4]; 1 μM Nileprost, human CD8 cells, Anti-CD3/CD28 stimulation, individual donors 1-4): 59% and 80%
- inhibitory activity in the cytotoxic CD8+ lymphocyte cytokine release (IFN-γ [4]; IFN-γ, GM-CSF and IL-2, anti-CD3/CD28 stimulation): very high inhibitory activity
- Percent inhibition of IL-2 compared to uninhibited control (IL-2; 1 μM Nileprost, Anti-CD3/CD28 stimulation, individual donors 1-4): 70%
- inhibition at 1 µM (IL-2; Homo sapiens, read-out: Percent inhibition of IL-2 compared to uninhibited control, 1 μM Nileprost, Anti-CD3/CD28 stimulation, individual donors 1-4): 71%
- Cmax ([5]; 32 ug): 0.84 ng/mL and 2.1 nM
- Cmax ([5]; 65 ug): 0.929 ng/mL and 2.3 nM
